Among the test systems are 786-0 renal; HT29 colon; MDA-MB-435; NCI-H226 lung; OVCAR-5 ovarian; OVCAR-8 ovarian; SF-268 CNS; SNB-75 CNS; U251 CNS; A549 NSCLC.
Assay in all cases: DTP human tumour cell line panel, 48 h

“And” between values parts separate entries of the source, which are not always exact repeats. Equal entries are not always repeated.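 Assay format: 96-well plates, 48-hour exposure. GI50 marks 50% less growth. At the TGI there is no net growth.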

As usually defined, the GI50 is the concentration giving 50% growth inhibition. As a reminder, the TGI is the concentration giving total growth inhibition. A higher TGI goes with less potent growth arrest.

Consider `CC[C@@]1(O)C[C@H](OC2CC(N(C)C)C(O)C(C)O2)c2c(O)c3c(c(O)c2[C@H]1OC1CC(N(C)C)C(O)C(C)O1)C(=O)c1cccc(O)c1C3=O` (stereo not given in full), for which the GI50 in the assay on 786-0 renal, in the assay with HT29 colon, in the assay with MDA-MB-435, in the assay on NCI-H226 lung, in the assay with OVCAR-5 ovarian and in the assay with OVCAR-8 ovarian was < 0.01 µM each time. The GI50 with SF-268 CNS is < 0.01 µM; in the assay with SNB-75 CNS, < 10 nM; in the assay with U251 CNS, < 0.01 µM. For the same compound, the concentration for total growth inhibition (TGI) with HT29 colon was 0.353 µM and 0.109 µM; with MDA-MB-435, 0.123 µM and 0.0187 µM; in the assay with OVCAR-8 ovarian, 0.4 µM and 1.1 µM.

`COc1ccc(-c2nc3sccn3c2/C(N)=N/C(=N)N)cc1OC`: the GI50 in the assay on 786-0 renal was 32.9 µM; in the assay with A549 NSCLC, > 100 µM; with HT29 colon, 58.4 µM; in the assay with MDA-MB-435, 33.1 µM; in the assay with NCI-H226 lung, 45.1 µM; in the assay with OVCAR-5 ovarian, 78 µM. The GI50 was 43.8 µM in the assay with OVCAR-8 ovarian, 50.3 µM in the assay with SF-268 CNS and 34.1 µM in the assay with U251 CNS. In addition, the TGI in the assay on 786-0 renal, with A549 NSCLC, with HT29 colon, in the assay with MDA-MB-435, with NCI-H226 lung and with OVCAR-5 ovarian was > 100 µM in each case. For the same compound, the TGI in the assay on OVCAR-8 ovarian, in the assay on SF-268 CNS and with U251 CNS was > 100 µM each time.

`O=C(O)CSc1ccc([N+](=O)[O-])cc1[N+](=O)[O-]`: the TGI in the assay on 786-0 renal, in the assay on A549 NSCLC, with HT29 colon, in the assay with MDA-MB-435, with OVCAR-5 ovarian and in the assay on OVCAR-8 ovarian was > 100 µM in each case. Moreover, the TGI in the assay with SF-268 CNS, in the assay on SNB-75 CNS and in the assay on U251 CNS was > 100 µM in each case.

With `O=C(/C=C/c1ccccc1)NC1C=Nc2ccc(Cl)cc2NC1=O` (stereo not given), the concentration for total growth inhibition (TGI) with 786-0 renal, with A549 NSCLC, with HT29 colon, in the assay on NCI-H226 lung, with OVCAR-5 ovarian and in the assay with OVCAR-8 ovarian was > 100 µM throughout. Moreover, the TGI in the assay with SF-268 CNS was > 100 µM; with SNB-75 CNS, 62.9 µM; in the assay on U251 CNS it was 79.9 µM.

With `COc1cc(CNc2cnc3cc(N)cc(N)c3n2)cc(OC)c1`, the GI50 with 786-0 renal is 15.4 µM; in the assay with A549 NSCLC, 33 µM; with MDA-MB-435, 21.1 µM; in the assay on NCI-H226 lung, 17.4 µM; with OVCAR-5 ovarian it was 17.6 µM; in the assay with OVCAR-8 ovarian, 22.6 µM. Further, the GI50 in the assay with SF-268 CNS was 15.8 µM. For the same compound, the TGI is 30 µM in the assay on 786-0 renal; > 100 µM with A549 NSCLC; 39.5 µM with MDA-MB-435; 55.3 µM in the assay with NCI-H226 lung; 48 µM in the assay on OVCAR-5 ovarian; 57.6 µM in the assay on OVCAR-8 ovarian. For the same compound, in the assay with SF-268 CNS, the total growth inhibition concentration (TGI) was 37.7 µM.

Turning to `CCCCOC(=O)C1OC(O[C@H]2CCC3(C)C(CCC4(C)C3CC=C3C5CC(C)(C)CCC5(C(=O)O)CC[C@]34C)C2(C)C)C(OC2OC(CO)C(O)C(O)C2O)C(OC2OC(CO)C(O)C(O)C2O)C1O` (stereo not given in full), the GI50 was 26.2 µM in the assay on 786-0 renal; 34.1 µM with A549 NSCLC; 34.2 µM in the assay with HT29 colon; 30.6 µM in the assay with MDA-MB-435; 29.2 µM with NCI-H226 lung; 28.8 µM in the assay with OVCAR-5 ovarian. Also, the GI50 in the assay on OVCAR-8 ovarian is 66.8 µM; with SF-268 CNS it was 27.7 µM; in the assay on U251 CNS it was 17.9 µM. In addition, the TGI was 70.9 µM with 786-0 renal; > 100 µM in the assay with A549 NSCLC; > 100 µM in the assay with HT29 colon; 81 µM in the assay on MDA-MB-435; 66.1 µM in the assay with NCI-H226 lung; 56.4 µM in the assay with OVCAR-5 ovarian. The TGI was > 100 µM in the assay with OVCAR-8 ovarian, 84.4 µM with SF-268 CNS and 31.8 µM in the assay with U251 CNS.

For the compound `COc1ccc2c(c1)/C(=C/c1c(C)nc3sc(C)nn13)C(=O)N2`, the GI50 in the assay with 786-0 renal was 6.08 µM; in the assay on A549 NSCLC, 7.74 µM; in the assay on HT29 colon, 0.451 µM; in the assay with NCI-H226 lung it was > 28.4 µM; in the assay with OVCAR-5 ovarian, 9.28 µM; with OVCAR-8 ovarian it was 6.38 µM. Moreover, the GI50 is 3.06 µM with SF-268 CNS, 1580 nM in the assay on SNB-75 CNS and 4.08 µM with U251 CNS. The TGI in the assay on 786-0 renal, in the assay with A549 NSCLC, in the assay on HT29 colon, with NCI-H226 lung, in the assay with OVCAR-5 ovarian and with OVCAR-8 ovarian was > 100 µM each time. In addition, the TGI with SF-268 CNS was > 50.5 µM; in the assay on SNB-75 CNS, 7.14 µM; in the assay with U251 CNS, > 100 µM.

On to `CCOc1ccc(NC(=O)C(=O)CC(=O)c2c[n+](=O)c3cc(C)c(C)cc3n2[O-])cc1`, for which the TGI with 786-0 renal, with A549 NSCLC, in the assay on HT29 colon, with NCI-H226 lung, in the assay with OVCAR-5 ovarian and in the assay on OVCAR-8 ovarian was > 100 µM each time. The TGI in the assay on SF-268 CNS, with SNB-75 CNS and in the assay with U251 CNS was > 100 µM each time.

Take `CN1C(=O)C(C)(C)C2(SC(C)(C)C2(C)C)N(C)C1=S` (stereo not given): the TGI in the assay on 786-0 renal, in the assay with A549 NSCLC, with HT29 colon, with NCI-H226 lung, in the assay on OVCAR-5 ovarian and with OVCAR-8 ovarian was > 100 µM throughout. Also, the TGI in the assay on SF-268 CNS, with SNB-75 CNS and in the assay with U251 CNS was > 100 µM in each case.

`COC1(OC)CCC2C1C1CCC(OC)(OC)C21` (stereo not given): the TGI with 786-0 renal, with A549 NSCLC, in the assay on HT29 colon, in the assay on NCI-H226 lung, in the assay with OVCAR-5 ovarian and in the assay on OVCAR-8 ovarian was > 50 µM throughout. The TGI in the assay with SF-268 CNS, with SNB-75 CNS and in the assay with U251 CNS was > 50 µM in each case.
